Legend:
[1] = target: T1, human 5-HT2CR (unedited INI isoform) (Homo sapiens, UniProt P28335); details: 1 nM, 5-HT-induced Cai2+ release, h5-HT2CR-CHO cells
T1 sequence (P28335 33-458): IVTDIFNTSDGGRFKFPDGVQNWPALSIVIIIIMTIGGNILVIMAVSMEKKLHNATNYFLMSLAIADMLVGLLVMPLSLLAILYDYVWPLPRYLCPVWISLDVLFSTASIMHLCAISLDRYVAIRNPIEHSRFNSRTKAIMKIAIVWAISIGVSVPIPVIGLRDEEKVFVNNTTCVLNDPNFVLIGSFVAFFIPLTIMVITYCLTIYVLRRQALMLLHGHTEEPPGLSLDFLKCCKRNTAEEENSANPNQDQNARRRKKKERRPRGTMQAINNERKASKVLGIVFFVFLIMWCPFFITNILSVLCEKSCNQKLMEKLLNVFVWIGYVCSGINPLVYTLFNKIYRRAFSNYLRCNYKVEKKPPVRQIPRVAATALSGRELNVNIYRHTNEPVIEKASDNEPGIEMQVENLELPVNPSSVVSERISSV

male Sprague–Dawley rats [2] = test: WAY163909 versus saline two-lever drug discrimination assay; format: in vivo, rat
[3] = target: T1, human 5-HT2CR (unedited INI isoform); details: cited from earlier work
male Sprague–Dawley rats [4] = details: previous study; cited from earlier work
D3 = D3 (Homo sapiens, UniProt P35462); details: 10 μM; cited from earlier work
D3, sequence (P35462 whole entry): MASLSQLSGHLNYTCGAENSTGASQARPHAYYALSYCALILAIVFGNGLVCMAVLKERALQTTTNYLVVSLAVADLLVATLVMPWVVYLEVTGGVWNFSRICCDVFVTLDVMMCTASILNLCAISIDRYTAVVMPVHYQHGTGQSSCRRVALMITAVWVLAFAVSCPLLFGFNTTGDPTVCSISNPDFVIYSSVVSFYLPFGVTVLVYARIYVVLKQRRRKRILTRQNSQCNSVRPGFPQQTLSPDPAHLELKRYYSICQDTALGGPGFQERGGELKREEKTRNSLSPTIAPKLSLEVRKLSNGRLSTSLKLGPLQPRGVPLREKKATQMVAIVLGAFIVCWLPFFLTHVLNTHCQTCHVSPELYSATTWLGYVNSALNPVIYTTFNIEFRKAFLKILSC

DAT = DAT (Homo sapiens, UniProt Q01959); details: 10 μM; cited from earlier work
DAT, sequence (Q01959 whole entry): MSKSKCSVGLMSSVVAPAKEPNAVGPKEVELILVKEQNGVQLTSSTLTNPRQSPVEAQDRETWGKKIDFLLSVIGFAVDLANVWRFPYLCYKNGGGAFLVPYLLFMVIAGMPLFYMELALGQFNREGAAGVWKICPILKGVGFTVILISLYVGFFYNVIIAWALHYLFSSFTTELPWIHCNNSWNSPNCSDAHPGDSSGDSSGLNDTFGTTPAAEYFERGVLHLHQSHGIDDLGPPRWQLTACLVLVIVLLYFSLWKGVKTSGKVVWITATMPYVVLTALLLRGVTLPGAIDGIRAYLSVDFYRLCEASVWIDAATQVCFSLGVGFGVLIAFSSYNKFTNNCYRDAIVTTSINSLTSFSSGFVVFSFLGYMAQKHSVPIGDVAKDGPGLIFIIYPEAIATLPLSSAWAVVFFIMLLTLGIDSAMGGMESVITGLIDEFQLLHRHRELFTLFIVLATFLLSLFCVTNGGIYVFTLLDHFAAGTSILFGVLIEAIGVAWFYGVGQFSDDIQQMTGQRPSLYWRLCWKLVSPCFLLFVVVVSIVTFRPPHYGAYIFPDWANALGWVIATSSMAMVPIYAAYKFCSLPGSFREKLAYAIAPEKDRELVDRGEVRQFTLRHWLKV

α 2A = target: T2, α 2A (Homo sapiens, UniProt P08913); details: 10 μM; cited from earlier work
T2 sequence (P08913 1-465): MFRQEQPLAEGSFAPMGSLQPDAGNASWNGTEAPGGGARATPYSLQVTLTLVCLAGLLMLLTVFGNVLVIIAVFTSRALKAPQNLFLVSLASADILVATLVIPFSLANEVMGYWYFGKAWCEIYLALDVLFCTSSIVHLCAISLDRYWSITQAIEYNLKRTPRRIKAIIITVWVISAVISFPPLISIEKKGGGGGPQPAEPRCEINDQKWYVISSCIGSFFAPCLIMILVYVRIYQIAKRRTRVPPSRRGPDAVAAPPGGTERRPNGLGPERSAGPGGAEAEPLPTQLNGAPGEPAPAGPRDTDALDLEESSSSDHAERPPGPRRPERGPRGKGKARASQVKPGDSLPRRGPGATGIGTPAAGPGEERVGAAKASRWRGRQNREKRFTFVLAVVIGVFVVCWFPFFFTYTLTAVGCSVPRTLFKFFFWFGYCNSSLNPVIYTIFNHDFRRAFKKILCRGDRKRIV

α 2B = target: T3, α 2B (Homo sapiens, UniProt P18089); details: 10 μM; cited from earlier work
T3 sequence (P18089 1-450): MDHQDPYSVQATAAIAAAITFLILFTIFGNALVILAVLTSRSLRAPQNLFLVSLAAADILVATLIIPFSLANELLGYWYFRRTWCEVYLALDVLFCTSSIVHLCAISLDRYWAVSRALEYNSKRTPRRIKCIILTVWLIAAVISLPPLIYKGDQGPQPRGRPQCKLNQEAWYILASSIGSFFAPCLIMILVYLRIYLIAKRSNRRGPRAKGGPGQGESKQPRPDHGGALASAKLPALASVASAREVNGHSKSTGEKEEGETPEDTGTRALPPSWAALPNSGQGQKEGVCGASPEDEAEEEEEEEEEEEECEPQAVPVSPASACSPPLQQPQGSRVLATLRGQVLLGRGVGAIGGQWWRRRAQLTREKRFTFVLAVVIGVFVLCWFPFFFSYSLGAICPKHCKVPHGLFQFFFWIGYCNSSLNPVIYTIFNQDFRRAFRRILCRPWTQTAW

rats [5] = details: cited from earlier work
rats [6] = details: cited from earlier work; remark: listed apart in the source

## O=C(NCCN1CCOCC1)[C@@H]1C[C@H](C2CCCCC2)CCN1 (racemic) [Compound 17, (2,4-cis)-4-Cyclohexyl-N-(2-morpholinoethyl)piperidine-2-carboxamide]
[1]
  5-HT2CR positive allosteric modulator activity (in words): did not result in positive allosteric effects

## O=C(NC(CO)CO)[C@@H]1C[C@H](C2CCCCC2)CCN1 (racemic) [Compound 15, (2,4-cis)-4-Cyclohexyl-N-(1,3-dihydroxypropan-2-yl)piperidine-2-carboxamide]
[1]
  5-HT2CR positive allosteric modulator activity (in words): did not result in positive allosteric effects

## O=C(NCCN1CCOCC1)[C@@H]1C[C@H](CCc2ccccc2)CCN1 (racemic) [Compound 36, (2,4-cis)-N-(2-Morpholinoethyl)-4-phenethylpiperidine-2-carboxamide]
[1]
  5-HT2CR positive allosteric modulator activity (in words): did not produce PAM effects

## Cc1cc2c(cc1Cl)N(C(=O)Nc1ccc(Oc3cccnc3C)nc1)CC2.Cl.Cl [SB242084, 6-chloro-5-methyl-1-[[2-(2-methylpyrid-3-yloxy)pyrid-5-yl]carbamoyl]indoline dihydrochloride, reference compound]
Male Sprague–Dawley rats [2]; SB242084 0.5 mg/kg pretreatment, 13/13 rats
  blockade of substitution of 12 (2 mg/kg) plus WAY163909 (0.5 mg/kg): completely prevented the substitution

## CCCCCCCCCCC[C@@H]1CCN[C@H](C(=O)N[C@@H]([C@H]2O[C@H](SC)[C@H](O)[C@@H](O)[C@H]2O)[C@H](C)Cl)C1.Cl [Compound 1]
[3]; titration studies
  shift of the 5-HT-evoked Cai2+ response curve: evoked a leftward shift

## O=C(NCCN1CCOCC1)[C@@H]1C[C@H](CCC2CCCCC2)CCN1 (racemic) [Compound 34, (2,4-cis)-4-(2-Cyclohexylethyl)-N-(2-morpholinoethyl)piperidine-2-carboxamide]
[1]
  5-HT2CR positive allosteric modulator activity (in words): did not produce PAM effects

## O=C(NC(CO)C(O)c1ccccc1)C1C[C@@H](c2ccccc2)CCN1 (stereo in doubt) [Compound (2R,4S)-11, (2S,4S)-N-((1S,2S)-1,3-Dihydroxy-1-phenylpropan-2-yl)-4-phenylpiperidine-2-carboxamide]
[1]
  5-HT2CR positive allosteric modulator activity (in words): modest allosteric activity

## O=C(NCCCN1CCOCC1)[C@@H]1C[C@H](CCC2CCCCC2)CCN1 (racemic) [Compound 35, (2,4-cis)-4-(2-Cyclohexylethyl)-N-(3-morpholinopropyl)-piperidine-2-carboxamide]
[1]
  5-HT2CR positive allosteric modulator activity (in words): did produce PAM effects

## O=C(NC(CO)CO)[C@@H]1C[C@H](c2ccccc2)CCN1 (racemic) [Compound 14, (2,4-cis)-N-(1,3-Dihydroxypropan-2-yl)-4-phenylpiperidine-2-carboxamide]
[1]
  5-HT2CR positive allosteric modulator activity (in words): did promote PAM activity

## c1cc2c3c(c1)[C@H]1CCC[C@H]1N3CCNC2 [WAY163909, (7b-R,10a-R)-1,2,3,4,8,9,10,10a-octahydro-7bH-cyclopenta[b][1,4] diazepino[6,7,1hi]indole, reference compound]
Male Sprague–Dawley rats [2]; WAY163909 0.125 mg/kg ip, substitution test, n = 13
  percentage of rats selecting the WAY163909-associated lever: 0%
Male Sprague–Dawley rats [4]
  dose predicted to result in 50% drug-associated responses (ED50): 0.53 mg/kg

## O=C(NCCN1CCOCC1)[C@@H]1C[C@H](c2ccccc2)CCN1 (racemic) [Compound 16, (2,4-cis)-N-(2-Morpholinoethyl)-4-phenylpiperidine-2-carboxamide]
[1]
  5-HT2CR positive allosteric modulator activity (in words): did not result in positive allosteric effects

## CCCCCCCCCCC[C@@H]1CCN[C@H](C(=O)NCC(O)CO)C1 (stereo partly drawn) [Compound 3]
[3]; compound 1 nM, 5-HT-induced Cai2+ release, h5-HT2CR-CHO cells
  Emax RFU (% 5-HT): 123.2 ± 4.1 % 5-HT
[3]; h5-HT2CR-CHO cells
  effect on Cai2+ release in the absence of 5-HT: no effect on Cai^2+ release
D3
  inhibition of radioligand binding: 71.7%
DAT
  inhibition of radioligand binding: 66.3%
α 2A
  inhibition of radioligand binding: 85.1%
α 2B
  inhibition of radioligand binding: 80.7%
Rats [5]
  effect on locomotor activity: decrease locomotor activity
Rats [6]
  effect on cocaine-seeking during abstinence from cocaine self-administration: suppress cocaine-seeking

## O=C(NCCCN1CCOCC1)[C@@H]1C[C@H](CCc2ccccc2)CCN1 (racemic) [Compound 37, (2,4-cis)-N-(3-Morpholinopropyl)-4-phenethylpiperidine-2-carboxamide]
[1]
  5-HT2CR positive allosteric modulator activity (in words): did produce PAM effects

— PMC8434884 (Journal of medicinal chemistry, 2020)
